We go through 7 compounds from patent US9040502B2, “Anti-XDR-TB drug, anti-MDR-TB drug, and combination anti-tuberculosis drug” (priority 2008, dated 2015).

The assay concerns Mycobacterium tuberculosis XDR-TB (0306-0206). In kind it is cell-based. The conditions noted are these: ratio method, concentrations as in Table 1.
For the compound `N[C@@H]1CON=C1O` [CS, cycloserine], the “Resistance or sensitivity of M. tuberculosis XDR-TB (0306-0206) to the drug” value (from here on “Resistance or sensitivity”) is “sensitive”.

For `CC[C@@H](CO)NCCN[C@@H](CC)CO` [EB, ethambutol], the “Resistance or sensitivity” value is listed as “resistant”.

With `NNC(=O)c1ccncc1` [INH, isonicotinic acid hydrazide], the “Resistance or sensitivity” value is given as “resistant”. With `Nc1ccc(C(=O)O)c(O)c1` [PAS, para-amino-salicylic acid], the “Resistance or sensitivity” value is “resistant”.

Regarding `[H]/N=C(/N)N[C@H]1[C@H](O)[C@@H](O)[C@H](O[C@@H]2O[C@@H](C)[C@](O)(C=O)[C@H]2O[C@@H]2O[C@@H](CO)[C@H](O)[C@@H](O)[C@@H]2NC)[C@@H](N/C(N)=N\[H])[C@@H]1O` [SM, streptomycin], the “Resistance or sensitivity” value was “resistant”.

In the case of `CCc1cc(C(N)=S)ccn1` [TH, ethionamide], the “Resistance or sensitivity” value is “resistant”.

With enviomycin [EVM], the “Resistance or sensitivity” value is reported as “resistant”.
